Assay results from patent US20260210939A1, “MODIFIED OLFACTORY RECEPTORS” (GIVAUDAN SA, priority 2022, published 2026).

Tests used:
Type in all cases: cell-based
[1] = system: library of all human class I OR; assay: Screening of the library of all class I OR (n=77, C-terminal domain SEQ ID NO: 741) with carboxylic acids, luciferase induction; conditions: full library of class I OR
Protocol: All human class I OR and all key genetic variants of these OR were synthesized with a sequence coding for the identical C-terminal domain […] (SEQ ID NO: 741) in the vector pcDNA3.1(+) to generate a library of all class I OR with an improved C-terminal domain.
Parallel transfection experiments were conducted with all these plasmids (n=77, SEQ ID NO: 760, OR51F1 was excluded due to poor plasmid yield) and cells expressing the different OR were stimulated with one given ligand at a time. In total 10 different carboxylic acids ligands were tested on the full library of class I receptors.

[2] = target: T1, OR52E8 (Homo sapiens, UniProt Q6IFG1)
T1 construct: Improved functional expression of modified OR-genes containing the truncated, optimized C-terminus; expressed in transfected cells; host or cells: HEK293T stably expressing human RTP1S(V227I) and RTP2(L220R)
Excerpt: Activation of OR52E8 by odorant acids present in human sweat (Natsch et al. A specific bacterial aminoacylase cleaves odorant precursors secreted in the human axilla. The Journal of biological chemistry 2003; 278(8):5718-5727) was investigated with different variants of the parent receptor sequence. The wild-type variant was not activated by the acids. […] However, using the optimized sequence from Examples 1-5 led to a strong signal upon addition of 3-methyl-3-hydroxy hexanoic acid.
(§1) These two improvements were further combined and the combination was tested on OR52A5 and two further class I receptors. […] In the case of OR52A4, 4-ethyloctanoic acid, which is detected at low concentrations by the human nose, is detected with a high luciferase response already at 0.19 μM by the receptor with the C-terminal modification showing very sensitive detection of this carboxylic acid by the modified class I receptor.

[3] = target: T2, OR10J5 (Homo sapiens, UniProt Q8NHC4); conditions: for EC20%: OR10J5 with SEQ ID NO: 86, relative to positive control 100 μM Mahonial
T2 construct: Improved functional expression of modified OR-genes containing the truncated, optimized C-terminus; expressed in transfected cells; host or cells: HEK293T stably expressing human RTP1S(V227I) and RTP2(L220R)
T2 sequence (Q8NHC4 with tags, fused parts or gaps): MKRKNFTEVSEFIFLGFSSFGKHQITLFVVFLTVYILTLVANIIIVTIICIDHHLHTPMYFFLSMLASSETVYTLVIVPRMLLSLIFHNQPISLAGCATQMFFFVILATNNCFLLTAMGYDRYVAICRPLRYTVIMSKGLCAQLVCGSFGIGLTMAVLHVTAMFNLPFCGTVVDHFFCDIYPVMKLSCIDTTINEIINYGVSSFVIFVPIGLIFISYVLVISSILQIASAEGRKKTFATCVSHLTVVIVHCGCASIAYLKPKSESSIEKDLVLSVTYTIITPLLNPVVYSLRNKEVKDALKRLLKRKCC
Protocol: Activation of OR10J5 with the C-terminal domain of SEQ ID NO: 86 by (S,E)-10-hydroxy-4,8-dimethyldec-4-enal or (R,E)-10-hydroxy-4,8-dimethyldec-4-enal was measured in a dose-response analysis.
Potency of the two tested OR10J5 ligands is expressed as the EC20% value, which is the concentration that leads to a 20% increase of the luciferase activity relative to the positive control (100 μM, Mahonial; (4E)-9-hydroxy-5,9-dimethyl-4-Decenal). […] Because of the difference in EC20%, a much lower concentration of the (S,E)-isomer is needed to activate the receptor compared to the concentration needed of the (R,E)-isomer. […] This example further illustrates the usefulness of the improved assay to determine the most odor-active isomers.

[4] = target: T3, OR4S2 (Homo sapiens, UniProt Q8NH73, A290K); assay: cell-based
T3 construct: Improved functional expression of modified OR-genes containing the truncated, optimized C-terminus; expressed in transfected cells; host or cells: HEK293T stably expressing human RTP1S(V227I) and RTP2(L220R)
T3 sequence (Q8NH73 with tags, fused parts or gaps A290K): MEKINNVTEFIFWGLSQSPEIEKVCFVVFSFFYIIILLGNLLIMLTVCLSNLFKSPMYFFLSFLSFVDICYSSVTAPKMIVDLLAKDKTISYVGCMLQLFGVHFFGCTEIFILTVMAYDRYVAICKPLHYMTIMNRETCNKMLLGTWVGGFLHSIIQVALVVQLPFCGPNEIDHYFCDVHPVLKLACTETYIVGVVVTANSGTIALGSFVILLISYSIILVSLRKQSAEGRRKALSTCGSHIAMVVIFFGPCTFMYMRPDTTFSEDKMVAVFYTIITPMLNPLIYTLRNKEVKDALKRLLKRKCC

[5] = target: T2, OR10J5; conditions: changed C-term. vs wild-type
[6] = target: T4, OR5AN1 (Homo sapiens, UniProt Q8NGI8); assay: Luciferase assay with chimeric OR5AN1 carrying the C-terminal sequence of OR1N2
T4 construct: Lucy part is a cleavable signal peptide) (N); expressed in transfected cells
Excerpt: Similarly, the C-terminal sequence of OR5AN1 was replaced with the C-terminal sequence of the ambrettolide receptor OR1N2.

[7] = target: T5, OR10J1(M51I, I92M) (Homo sapiens, UniProt P30954, I103M/M62I); assay: Dose-response test of single lactones on OR10J1(M51I, I92M)
T5 construct: expressed in transfected cells; transient transfection of pcDNA3.1(+) OR plasmid
T5 sequence (P30954 with tags, fused parts or gaps M62I/I103M): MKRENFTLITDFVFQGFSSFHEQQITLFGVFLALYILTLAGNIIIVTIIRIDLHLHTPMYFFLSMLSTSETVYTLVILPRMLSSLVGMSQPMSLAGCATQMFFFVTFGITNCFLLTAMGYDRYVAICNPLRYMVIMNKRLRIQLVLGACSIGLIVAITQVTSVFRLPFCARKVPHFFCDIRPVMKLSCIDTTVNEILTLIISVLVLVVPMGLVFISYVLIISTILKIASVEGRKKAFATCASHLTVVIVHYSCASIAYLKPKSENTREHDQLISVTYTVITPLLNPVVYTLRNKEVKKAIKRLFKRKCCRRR
Protocol: (§2) In a subsequent de-convultion experiment, the single ingredients were tested in a dose-response test on all the identified OR. […] Thus, OR2AP1 and OR2J2 are particularly strongly activated by the long-chain dodecalactone gamma, while OR10A3 is very sensitive to several longer chain lactones. […] Among the five OR, OR10A3 is the most sensitive.

[8] = target: T6, OR2AP1 (Homo sapiens, UniProt Q8NGE2); assay: Dose-response test of single lactones on OR2AP1
T6 construct: expressed in transfected cells; transient transfection of pcDNA3.1(+) OR plasmid
T6 sequence (Q8NGE2 with tags, fused parts or gaps limits assumed): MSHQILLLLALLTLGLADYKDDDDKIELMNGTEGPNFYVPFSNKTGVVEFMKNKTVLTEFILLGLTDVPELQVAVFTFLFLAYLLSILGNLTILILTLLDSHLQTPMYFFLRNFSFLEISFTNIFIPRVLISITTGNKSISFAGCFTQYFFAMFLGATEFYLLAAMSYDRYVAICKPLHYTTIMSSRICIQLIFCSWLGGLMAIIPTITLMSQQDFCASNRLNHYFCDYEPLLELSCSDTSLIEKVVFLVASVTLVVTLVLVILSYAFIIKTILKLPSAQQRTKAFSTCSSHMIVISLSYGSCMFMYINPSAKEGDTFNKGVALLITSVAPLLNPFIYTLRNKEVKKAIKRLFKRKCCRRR
Protocol: as §2

[9] = target: T7, OR2J2 (Homo sapiens, UniProt O76002, A146V/A218T/A302I/G300K/H297E/H74Y); assay: Dose-response test of single lactones on OR2J2
T7 construct: expressed in transfected cells; transient transfection of pcDNA3.1(+) OR plasmid
T7 sequence (O76002 with tags, fused parts or gaps H74Y/A146V/A218T/H297E/G300K/A302I limits assumed): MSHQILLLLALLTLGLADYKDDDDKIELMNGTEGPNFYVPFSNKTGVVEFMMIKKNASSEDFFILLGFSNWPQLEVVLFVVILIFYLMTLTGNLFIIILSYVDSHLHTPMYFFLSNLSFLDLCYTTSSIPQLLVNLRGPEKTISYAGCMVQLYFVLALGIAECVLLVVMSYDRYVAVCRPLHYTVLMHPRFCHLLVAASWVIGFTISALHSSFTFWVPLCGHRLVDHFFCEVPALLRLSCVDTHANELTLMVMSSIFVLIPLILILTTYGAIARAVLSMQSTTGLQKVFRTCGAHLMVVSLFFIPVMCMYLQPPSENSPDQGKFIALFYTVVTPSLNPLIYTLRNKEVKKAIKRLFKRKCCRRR
Protocol: as §2

[10] = target: T8, OR10A6(A117V, V140G, L287P) (Homo sapiens, UniProt Q8NH74, A117V/L287P/V140G); assay: Dose-response test of single lactones on OR10A6(A117V, V140G, L287P)
T8 construct: expressed in transfected cells; transient transfection of pcDNA3.1(+) OR plasmid
T8 sequence (Q8NH74 with tags, fused parts or gaps A117V/V140G/L287P limits assumed): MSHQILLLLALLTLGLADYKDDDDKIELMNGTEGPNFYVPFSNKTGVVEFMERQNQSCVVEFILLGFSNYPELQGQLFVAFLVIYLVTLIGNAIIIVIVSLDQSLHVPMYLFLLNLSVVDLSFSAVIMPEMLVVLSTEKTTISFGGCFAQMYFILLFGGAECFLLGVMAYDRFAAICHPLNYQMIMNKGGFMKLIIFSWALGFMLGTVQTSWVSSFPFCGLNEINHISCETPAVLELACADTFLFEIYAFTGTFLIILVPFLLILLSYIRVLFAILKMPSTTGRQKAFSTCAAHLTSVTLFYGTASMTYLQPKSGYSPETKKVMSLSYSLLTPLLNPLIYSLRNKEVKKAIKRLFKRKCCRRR
Protocol: as §2

[11] = target: T9, OR10A3 (Homo sapiens, UniProt P58181); assay: Dose-response test of single lactones on OR10A3 (luciferase)
T9 construct: Class II OR library members with modified C-terminal domains; expressed in transfected cells
T9 sequence (P58181 with tags, fused parts or gaps): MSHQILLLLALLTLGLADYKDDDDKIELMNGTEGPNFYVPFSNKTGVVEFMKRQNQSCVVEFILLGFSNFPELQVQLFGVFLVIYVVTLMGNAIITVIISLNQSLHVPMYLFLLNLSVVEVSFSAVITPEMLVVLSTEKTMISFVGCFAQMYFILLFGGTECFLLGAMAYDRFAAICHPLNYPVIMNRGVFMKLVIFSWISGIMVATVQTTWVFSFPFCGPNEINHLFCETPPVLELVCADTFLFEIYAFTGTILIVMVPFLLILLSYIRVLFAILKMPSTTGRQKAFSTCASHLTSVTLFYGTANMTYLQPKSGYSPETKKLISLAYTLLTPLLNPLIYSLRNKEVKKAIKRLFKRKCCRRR
Protocol: as §2

[12] = target: T10, OR56A4 (Homo sapiens, UniProt Q8NGH8, T299N); assay: cell-based; conditions: for activation of the wild-type: wild-type OR56A4
T10 construct: Improved functional expression of modified OR-genes containing the truncated, optimized C-terminus; expressed in transfected cells; host or cells: HEK293T stably expressing human RTP1S(V227I) and RTP2(L220R)
T10 sequence (Q8NGH8 with tags, fused parts or gaps T299N): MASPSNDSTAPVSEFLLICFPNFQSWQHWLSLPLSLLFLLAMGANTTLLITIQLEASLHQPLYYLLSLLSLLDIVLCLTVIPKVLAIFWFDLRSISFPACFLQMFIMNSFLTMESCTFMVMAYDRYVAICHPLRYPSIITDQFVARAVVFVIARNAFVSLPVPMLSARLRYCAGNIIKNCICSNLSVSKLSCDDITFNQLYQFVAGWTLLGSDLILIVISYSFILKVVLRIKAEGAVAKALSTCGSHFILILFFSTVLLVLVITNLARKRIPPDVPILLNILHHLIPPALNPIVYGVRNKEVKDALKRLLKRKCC
Protocol: Activation of OR56A4 by acids of different chain length was further tested. […] Replacing the wild-type with the C-terminal sequence of the functional OR51E1 did reduce activity. However, using the optimized sequence form Examples 1-5 led to a strong signal and much lower detection threshold upon addition of all three acids.
as §1

T1 sequence (Q6IFG1 with tags, fused parts or gaps): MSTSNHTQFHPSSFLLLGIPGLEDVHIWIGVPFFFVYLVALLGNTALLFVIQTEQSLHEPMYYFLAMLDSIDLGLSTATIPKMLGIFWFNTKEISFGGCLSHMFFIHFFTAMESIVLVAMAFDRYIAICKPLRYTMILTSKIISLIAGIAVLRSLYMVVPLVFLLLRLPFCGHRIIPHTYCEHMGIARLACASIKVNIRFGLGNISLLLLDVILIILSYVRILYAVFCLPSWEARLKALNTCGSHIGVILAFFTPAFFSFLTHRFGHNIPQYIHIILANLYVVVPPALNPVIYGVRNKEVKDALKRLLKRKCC
T4 sequence (Q8NGI8 with tags, fused parts or gaps limits assumed): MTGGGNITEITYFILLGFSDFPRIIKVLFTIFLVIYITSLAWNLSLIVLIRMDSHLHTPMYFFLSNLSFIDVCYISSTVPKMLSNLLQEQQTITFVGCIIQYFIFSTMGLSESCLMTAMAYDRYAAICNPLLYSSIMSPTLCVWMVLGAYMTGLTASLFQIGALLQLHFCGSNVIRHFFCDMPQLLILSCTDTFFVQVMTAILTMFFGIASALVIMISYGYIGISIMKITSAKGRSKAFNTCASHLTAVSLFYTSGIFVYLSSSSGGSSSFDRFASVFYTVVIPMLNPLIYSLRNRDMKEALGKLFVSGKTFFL

CCC=C(C)C(=O)O [2-Methyl-2-pentenoic acid]
Activated OR and OR variants [1]: No activation observed

CCCC(C)=CC(=O)O [3-Methyl-2-hexenoic acid]
Activated OR and OR variants [1]: strong induction of the OR51B2(C120R, L134F, C209S) variant but not of the wild-type variant of OR51B2

CCCC(C)(O)CC(=O)O (centres unmarked) [3-Methyl-3-Hydroxy-Hexanoic acid, 3-Methyl-3-hydroxyhexanoic acid]
Comments on efficacy [2]: No induction | Fold-improvement potency ([2]; changed C-term. vs wild-type): >>5 | Fold-improvement threshold ([2]; changed C-term. vs wild-type): >>5

CC(C)CC(=O)O [3-Methylbutanoic acid]
Activated OR and OR variants [1]: No activation observed

C/C(=C\CC[C@@H](C)CCO)CCC=O [(R,E)-10-hydroxy-4,8-dimethyldec-4-enal]
EC20% [3]: 24.4 µM

C/C(=C\CC[C@H](C)CCO)CCC=O [(S,E)-10-hydroxy-4,8-dimethyldec-4-enal]
EC20% [3]: 10.1 µM

c1ccc2scnc2c1 [Benzothiazole]
Comments on efficacy [4]: 2-fold lower | Fold-improvement potency ([4]; changed C-term. vs wild-type): 1.3 | Fold-improvement threshold ([4]; changed C-term. vs wild-type): 2.4 | EC50 ([4]; wild-type): 137 µM

C/C(=C\CCC=O)CCCC(C)(C)O [Mahonial, (4E)-9-hydroxy-5,9-dimethyl-4-Decenal]
Fold-improvement potency [5]: 2.3

CC(=O)c1c(C)c([N+](=O)[O-])c(C(C)(C)C)c([N+](=O)[O-])c1C [Musk ketone]
functional response of chimeric OR5AN1 [6]: not showing any functional response

Cc1cc(CC(C)C)ccc1CCC=O [Nympheal, 3-(4-isobutyl-2-methylphenyl)propanal]
Fold-improvement potency [5]: >>6 | Fold-improvement threshold [5]: >>6 | Comments on efficacy [3]: Only 1.8-fold

CCCCCCCC1CCC(=O)O1 (centres unmarked) [Undecalactone gamma]
EC2 (concentration for 2-fold luciferase induction) [7]: 2.11 µM | EC2 (concentration for 2-fold luciferase induction) [8]: 6.53 µM | EC2 (concentration for 2-fold luciferase induction) [9]: 0.71 µM | EC2 (concentration for 2-fold luciferase induction) [10]: 0.34 µM | EC10, concentration for 10-fold OR activation [11]: 0.28 μM

CCCCCCCCCCC(=O)O [Undecanoic acid]
Fold-improvement potency ([12]; changed C-term. vs wild-type): 5.1 | EC50 ([12]; wild-type): 114 µM | activation of the wild-type [12]: activated at high concentration

CCCCCCCCCC(=O)O [decanoic acid]
activation of the wild-type [12]: activated at high concentration
